Experiments:
[1] = system: a selection of other relevant receptors; conditions: according to US2003/0171347A1, page 7, table2 and page 8, table 3; cited from earlier work
Obese Rats (DIO) = test: Chronical treatment of obese rats (DIO); assay type: in vivo; conditions: 50 mg/Kg i.p., one injection per day for 9 days, followed for 10 more days, compared to Saline, data only in Figures 1 to 4
Description: Obese Rats (DIO) were treated for 9 days intraperitoneally (i.p.) one injection per day with Saline, with BD-1063 at 50 mg/Kg and PRE-084 at 25 mg /Kg, a well known […]. During that time each day and at some points during the following 10 days the weight giving the difference in weight (referring to the day of starting the treatment) was determined, as were the blood glucose levels, blood level of cholesterol, blood level of Triglycerides (TG).

Structure (SMILES)	binding to a selection of other relevant receptors [1]	effect on the weight (in weight difference), blood glucose levels, blood level of cholesterol, blood level of Triglycerides (TG) (Obese Rats (DIO))
CN(C)CCN(C)CCc1ccc(Cl)c(Cl)c1 [BD-1047, N1-(3,4-dichlorophenethyl)-N1,N2,N2-trimethylethane-1,2-diamine]	no or only slight binding	–
CN1CCN(CCc2ccc(Cl)c(Cl)c2)CC1 [BD-1063, 1-(3,4-dichlorophenethyl)-4-methylpiperazine]	no or only slight binding	highly effective
